Measurements published in PMC11597202, “Novel Thiazole-Fused [4,5-g] or [5,4-g]Quinazolin-8-ones and Their Quinazoline Analogues: Synthesis and Biological Evaluation” (Pharmaceuticals, 2024).

Biological target: T1, JAK3 (Homo sapiens, UniProt P52333)
T1 construct: host or cells: Sf9 insect cells (baculovirus)
T1 sequence (P52333 1-1124): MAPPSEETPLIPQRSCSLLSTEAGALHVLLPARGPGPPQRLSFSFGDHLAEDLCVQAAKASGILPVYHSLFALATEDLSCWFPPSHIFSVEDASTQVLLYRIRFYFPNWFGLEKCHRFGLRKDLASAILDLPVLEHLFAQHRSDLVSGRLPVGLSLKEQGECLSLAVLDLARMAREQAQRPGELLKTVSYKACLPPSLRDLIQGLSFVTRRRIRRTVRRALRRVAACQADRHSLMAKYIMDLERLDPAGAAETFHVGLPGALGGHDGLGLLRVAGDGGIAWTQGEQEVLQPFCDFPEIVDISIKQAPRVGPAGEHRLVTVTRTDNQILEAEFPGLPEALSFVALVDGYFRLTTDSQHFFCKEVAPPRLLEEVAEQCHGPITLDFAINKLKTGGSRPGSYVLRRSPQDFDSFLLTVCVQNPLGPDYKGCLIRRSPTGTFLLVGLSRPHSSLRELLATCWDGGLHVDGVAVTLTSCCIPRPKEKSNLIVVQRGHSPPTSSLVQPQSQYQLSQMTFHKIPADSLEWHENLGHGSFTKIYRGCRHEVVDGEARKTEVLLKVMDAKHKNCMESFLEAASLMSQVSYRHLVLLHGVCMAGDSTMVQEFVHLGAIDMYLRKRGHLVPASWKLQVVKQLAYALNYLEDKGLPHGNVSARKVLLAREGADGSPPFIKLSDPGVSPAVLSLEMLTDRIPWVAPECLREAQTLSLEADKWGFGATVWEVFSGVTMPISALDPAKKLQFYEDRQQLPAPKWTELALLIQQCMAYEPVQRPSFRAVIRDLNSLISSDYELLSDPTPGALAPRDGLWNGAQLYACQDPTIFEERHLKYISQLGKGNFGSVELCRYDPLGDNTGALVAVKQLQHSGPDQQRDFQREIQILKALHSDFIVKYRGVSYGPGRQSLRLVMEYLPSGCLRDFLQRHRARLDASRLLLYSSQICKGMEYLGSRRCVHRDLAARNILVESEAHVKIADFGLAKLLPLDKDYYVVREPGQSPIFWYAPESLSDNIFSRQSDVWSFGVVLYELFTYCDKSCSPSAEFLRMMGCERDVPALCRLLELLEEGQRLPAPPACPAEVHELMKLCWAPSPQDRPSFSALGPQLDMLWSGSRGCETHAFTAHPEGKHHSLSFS
Test: ADP-Glo kinase inhibition assay, JAK3
Format: biochemical
Conditions: for remaining activity at 1 µM: 1 μM compound; for remaining activity at 1 µM / remaining activity at 10 µM: percentage of maximum activity of the DMSO control, mean n = 2, 10 µM ATP, read-out: Residual activity JAK3; for remaining activity at 10 µM: 10 μM compound; for Inhibition of JAK3 kinase activity: span over the tested concentrations (1 and 10 μM)
Description: Kinase enzymatic activities were assayed in 384-well plates using the ADP-Glo^TM assay kit (Promega, Madison, WI, USA) according to the recommendations of the manufacturer. This luminescent ADP detection assay was described by Zegzouti and co-workers and provides a homogeneous and high-throughput screening method to measure kinase activity by quantifying the amount of ADP produced during a kinase reaction. Briefly, the reactions were carried out in a final volume of 6 µL for 30 min at 30 °C in an appropriate kinase buffer (10 mM MgCl2, 1 mM EGTA, 1 mM DTT, 25 mM Tris-HCl pH 7.5, 50 µg/mL heparin), with peptide or protein as substrate in the presence of 10 µM ATP. Peptide substrates were obtained from ProteoGenix (Schiltigheim, France) or Sigma for Histone H1, Poly (L-glutamic acid–L-tyrosine) sodium salt, Casein and MBP. After that, 6 µL of ADP-Glo^TM Kinase Reagent was added to stop the kinase reaction. After an incubation time of 50 min at room temperature (rt), 12 µL of Kinase Detection Reagent was added for one hour at rt. The transmitted signal was measured using the Envision (PerkinElmer, Waltham, MA, USA) microplate luminometer and expressed as Relative Light Units (RLUs). Kinase activities are expressed as percentages of remaining kinase activities detected after treatment with 1 or 10 µM of the tested compounds. The maximum kinase activity was measured in the absence of inhibitor but with an equivalent dose of DMSO (solvent of the tested compounds).
3. Kinase inhibition assays
Kinase enzymatic activities were assayed in 384-well plates using the ADP-GloTM assay kit (Promega, Madison, WI) according to the recommendations of the manufacturer. This luminescent ADP detection assay was described by Zegzouti and co-workers and provides a homogeneous and high-throughput screening method to measure kinase activity by quantifying the amount of ADP produced during a kinase reaction. Briefly, the reactions were carried out in a final volume of 6 µl for 30 min at 30°C in appropriate kinase buffer (10 mM MgCl2, 1 mM EGTA, 1 mM DTT, 25 mM Tris-HCl pH 7.5, 50 µg/mL heparin), with peptide or protein as substrate in the presence of 10 µM ATP. Peptide substrates were obtained from ProteoGenix (Schiltigheim, France) or Sigma for Histone H1, Poly (L-glutamic acid – L-tyrosine) sodium salt, Casein and MBP. After that, 6 µL of ADP-GloTM Kinase Reagent was added to stop the kinase reaction. After an incubation time of 50 min at room temperature (rt), 12 µL of Kinase Detection Reagent was added for 1 h at rt. The transmitted signal was measured using the Envision (PerkinElmer, Waltham, MA) microplate luminometer and expressed in Relative Light Unit (RLU). Kinase activities are expressed in percentages of remaining kinase activities detected after treatment with 1 or 10 µM of the tested compounds. The maximal kinase activity is measured in the absence of inhibitor but with an equivalent dose of DMSO (solvent of the tested compounds).
Table. Human protein kinases tested in the panel: CDK9, HASPIN, PIM1, GSK3b, CK1ε, JAK3, CLK1 […]
Protein Kinase Enzyme Description Substrate1
(Family) (Working concentration)
CDK9/CyclinT Human, recombinant, expressed by Peptide:
(CMGC) baculovirus in Sf9 insect cells […]
CLK1 Human, recombinant, expressed by Peptide: […]
(CMGC) baculovirus in Sf9 insect cells (57.3µM)
DYRK1A Human, recombinant, expressed by Peptide: […]
(CMGC) baculovirus in Sf9 insect cells (10.7µM)
PIM1 Human proto-oncogene, recombinant, Peptide: […]
(CAMK) expressed in bacteria (630 µM)
GSK3 Human, recombinant, expressed by Peptide:
(CMGC) baculovirus in Sf9 insect cells […]pEDEEE 3
HASPIN Human, kinase domain, amino acids 470 to Histone H3 peptide (1-21):
(Other) 798, recombinant, expressed in bacteria […] (8µM)
CK1ε Human, recombinant, expressed by Peptide: […]pAYSITA 2
(CK1) baculovirus in Sf9 insect cells (170µM)
JAK3 Human, recombinant, expressed by Peptide: […]
(TK) baculovirus in Sf9 insect cells (94µM) […]

SMILES	remaining activity at 1 µM [%]	remaining activity at 10 µM [%]	Inhibition of JAK3 kinase activity
COC(=N)c1nc2ccc3ncn(Cc4ccccc4)c(=O)c3c2s1 [Compound I, methyl 8-benzyl-9-oxo-8,9-dihydrothiazolo[5,4-f]quinazoline-2-carbimidate, reference compound]	48	52	–
COC(=N)c1nc2cc3c(=O)n(Cc4ccccc4)cnc3cc2s1 [Compound 6a, Methyl 7-benzyl-8-oxo-7,8-dihydrothiazolo[4,5-g]quinazoline-2-carbimidate]	55	36	–
COC(=N)c1nc2cc3ncn(Cc4ccccc4)c(=O)c3cc2s1 [Compound 6b, Methyl 7-benzyl-8-oxo-7,8-dihydrothiazolo[5,4-g]quinazoline-2-carbimidate]	92	73	–
COC(=N)c1nc2ccc3ncnc(Nc4ccc(OC)cc4F)c3c2s1 [Compound II, methyl 9-[(2-fluoro-4-methoxyphenyl)amino]thiazolo[5,4-f]quinazoline-2-carbimidate, reference compound]	69	54	–
COC(=N)c1nc2ccc3c(=O)n(Cc4ccccc4)cnc3c2s1 [Compound 6d, Methyl 7-benzyl-6-oxo-6,7-dihydrothiazolo[4,5-h]quinazoline-2-carbimidate]	80	92	–
COC(=N)c1nc2c(ccc3c(=O)n(Cc4ccccc4)cnc32)s1 [Compound 6c, Methyl 7-benzyl-6-oxo-6,7-dihydrothiazolo[5,4-h]quinazoline-2-carbimidate]	59	44	–

More lines, now with the values ahead:

remaining activity at 1 µM [%]	remaining activity at 10 µM [%]	Inhibition of JAK3 kinase activity	SMILES
68	60	around 38%	COC(=N)c1nc2cc3ncnc(Nc4ccc(OC)cc4F)c3cc2s1 [Compound 15b, Methyl 8-[(2-fluoro-4-methoxyphenyl)amino]thiazolo[5,4-g]quinazoline-2-carbimidate]
64	58	around 38%	COC(=N)c1nc2cc3c(Nc4ccc(OC)cc4F)ncnc3cc2s1 [Compound 15a, Methyl 8-[(2-fluoro-4-methoxyphenyl)amino]thiazolo[4,5-g]quinazoline-2-carbimidate]
